Bridge positions count the residues as written; N and C are the ends. Square brackets hold non-standard residues; d marks the D form. Peptide text beside a SMILES is read from it. Hyp = O=C(O)[C@@H]1C[C@@H](O)CN1; Cit = NC(=O)NCCC[C@H](N)C(=O)O
Columns and labels:
hAM1 receptor = hAM1 receptor (Homo sapiens, UniProt O60895+Q16602); assay: cAMP assay for in vitro receptor activation, hAM1-R; assay type: cell-based; details: cAMP assay, hAM1 receptor; read-out: hAM1R EC50
Outline: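 Stable hAM1 cells (monoclonal) plated 8000/well; buffer DPBS, 0.05% casein, 0.5 mM IBMX; cAMP read-out.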

[1] = Physical stability of peptide analogues (Thioflavin T fibrillation); assay type: physicochemical; details: maximum ThT signal normalized between hAMY maximum and buffer background; 40° C., shaking, four days; pH 7 per table title
Outline: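 ThT fluorescence (450 nm excitation, 480 nm emission; 4 μM dye) was read every 10 min over four days at 40° C under 700 rpm shaking stress, after 1 h in pH 4 acetate or pH 7 phosphate (50 mM). Peak smoothed signal expressed as percent, scaled between buffer background and hAMY maximum.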

hAM1 receptor, sequence (Q16602 23-461): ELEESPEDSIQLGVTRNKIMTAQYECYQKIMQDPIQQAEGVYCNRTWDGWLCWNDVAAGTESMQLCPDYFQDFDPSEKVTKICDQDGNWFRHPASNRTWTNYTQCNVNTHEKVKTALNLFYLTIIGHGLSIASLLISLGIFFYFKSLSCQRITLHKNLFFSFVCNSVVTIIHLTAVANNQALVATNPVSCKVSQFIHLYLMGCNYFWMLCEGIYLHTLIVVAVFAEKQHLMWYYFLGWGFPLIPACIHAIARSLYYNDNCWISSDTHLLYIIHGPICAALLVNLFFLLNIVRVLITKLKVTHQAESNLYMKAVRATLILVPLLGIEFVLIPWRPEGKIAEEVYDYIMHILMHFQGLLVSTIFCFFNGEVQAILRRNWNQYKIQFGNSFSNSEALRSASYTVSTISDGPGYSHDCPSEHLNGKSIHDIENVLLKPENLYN
hAM1 receptor, sequence (O60895 43-175 partner): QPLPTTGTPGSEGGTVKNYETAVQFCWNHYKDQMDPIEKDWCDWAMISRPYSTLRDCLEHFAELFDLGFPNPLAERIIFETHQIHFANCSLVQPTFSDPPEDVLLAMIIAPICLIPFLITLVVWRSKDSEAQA

For `CC[C@H](C)[C@H](NC(=O)[C@H](CCC(N)=O)NC(=O)[C@H](Cc1c[nH]cn1)NC(=O)[C@H](C)NC(=O)[C@H](CC(C)C)NC(=O)[C@H](CCCNC(=N)N)NC(=O)[C@H](CCC(N)=O)NC(=O)[C@@H](NC(=O)[C@@H](NC(=O)[C@@H]1CSSC[C@H](NC(=O)CN)C(=O)N[C@@H](CCCNC(=N)N)C(=O)N[C@@H]([C@@H](C)O)C(=O)NCC(=O)N[C@@H]([C@@H](C)O)C(=O)N1)[C@@H](C)O)C(C)C)C(=O)N[C@@H](Cc1ccc(O)cc1)C(=O)N[C@@H](CCC(N)=O)C(=O)N[C@@H](Cc1ccccc1)C(=O)N[C@H](C(=O)N[C@@H](CC(N)=O)C(=O)N[C@@H](CCCCN)C(=O)N[C@@H](CC(=O)O)C(=O)N[C@@H](CCCCN)C(=O)N[C@@H](CC(=O)O)C(=O)N[C@@H](CC(N)=O)C(=O)N[C@H](C(=O)N[C@@H](C)C(=O)N1CCC[C@H]1C(=O)N[C@@H](CCCNC(=N)N)C(=O)N[C@@H](CO)C(=O)N[C@@H](CCCCN)C(=O)N[C@H](C(=O)N[C@@H](CO)C(=O)N1CCC[C@H]1C(=O)N[C@@H](CCC(N)=O)C(=O)N[C@@H](Cc1c[nH]c2ccccc12)C(=O)N1C[C@H](O)C[C@H]1C(N)=O)[C@@H](C)CC)C(C)C)[C@@H](C)O` [compound 220] (H-GCRTGTCTVQRLAHQIYQFTNKDKDNVAPRSKISPQW[Hyp]-NH2; disulfide 2-7), the EC50 (hAM1 receptor) was greater than 5 µM and the “Max ThT signal (%)” value [1] was 1.100%.
With `CC[C@H](C)[C@H](NC(=O)[C@H](CCC(N)=O)NC(=O)[C@H](Cc1c[nH]cn1)NC(=O)[C@H](C)NC(=O)[C@H](CC(C)C)NC(=O)[C@H](CCCNC(=N)N)NC(=O)[C@H](CCC(N)=O)NC(=O)[C@@H](NC(=O)[C@@H](NC(=O)[C@@H]1CSSC[C@H](NC(=O)CN)C(=O)N[C@@H](CCCNC(=N)N)C(=O)N[C@@H]([C@@H](C)O)C(=O)NCC(=O)N[C@@H]([C@@H](C)O)C(=O)N1)[C@@H](C)O)C(C)C)C(=O)N[C@@H](Cc1c[nH]cn1)C(=O)N[C@@H](CCC(N)=O)C(=O)N[C@@H](Cc1ccccc1)C(=O)N[C@H](C(=O)N[C@@H](CC(=O)O)C(=O)N[C@@H](CCCCN)C(=O)N[C@@H](CC(=O)O)C(=O)N[C@@H](CCCCN)C(=O)N[C@@H](CC(=O)O)C(=O)N[C@@H](CC(N)=O)C(=O)N[C@H](C(=O)N[C@@H](C)C(=O)N1CCC[C@H]1C(=O)N[C@@H](CCCNC(=N)N)C(=O)N[C@@H](CO)C(=O)N[C@@H](CCCCN)C(=O)N[C@H](C(=O)N[C@@H](CO)C(=O)N1CCC[C@H]1C(=O)N[C@@H](CCC(N)=O)C(=O)N[C@H](C(=O)N1C[C@H](O)C[C@H]1C(N)=O)[C@@H](C)O)[C@@H](C)CC)C(C)C)[C@@H](C)O` [compound 228] (H-GCRTGTCTVQRLAHQIHQFTDKDKDNVAPRSKISPQT[Hyp]-NH2; disulfide 2-7; N-terminus assumed) the EC50 (hAM1 receptor) was greater than 5 µM and the “Max ThT signal (%)” value [1] was 19.600%.
For `CC[C@H](C)[C@H](NC(=O)[C@H](CCC(N)=O)NC(=O)[C@H](Cc1c[nH]cn1)NC(=O)[C@H](C)NC(=O)[C@H](CC(C)C)NC(=O)[C@H](CCCNC(=N)N)NC(=O)[C@H](CCC(N)=O)NC(=O)[C@@H](NC(=O)[C@@H](NC(=O)[C@@H]1CSSC[C@H](NC(=O)CN)C(=O)N[C@@H](CCCNC(=N)N)C(=O)N[C@@H]([C@@H](C)O)C(=O)NCC(=O)N[C@@H]([C@@H](C)O)C(=O)N1)[C@@H](C)O)C(C)C)C(=O)N[C@@H](Cc1ccc(O)cc1)C(=O)N[C@@H](CCC(N)=O)C(=O)N[C@@H](Cc1ccccc1)C(=O)N[C@H](C(=O)N[C@@H](CC(=O)O)C(=O)N[C@@H](CCCCN)C(=O)N[C@@H](Cc1ccccc1)C(=O)N[C@@H](CCCCN)C(=O)N[C@@H](CC(=O)O)C(=O)N[C@@H](CC(N)=O)C(=O)N[C@H](C(=O)N[C@@H](C)C(=O)N1CCC[C@H]1C(=O)N[C@@H](CCCNC(=N)N)C(=O)N[C@@H](CO)C(=O)N[C@@H](CCCCN)C(=O)N[C@H](C(=O)N[C@@H](CO)C(=O)N1CCC[C@H]1C(=O)N[C@@H](CCC(N)=O)C(=O)N[C@H](C(=O)N[C@@H](Cc1ccc(O)cc1)C(N)=O)[C@@H](C)O)[C@@H](C)CC)C(C)C)[C@@H](C)O` [compound 230] (H-GCRTGTCTVQRLAHQIYQFTDKFKDNVAPRSKISPQTY-NH2; disulfide 2-7; N-terminus assumed), the EC50 (hAM1 receptor) was greater than 5 µM and the “Max ThT signal (%)” value [1] was 0.600%.
In the case of `CC[C@H](C)[C@H](NC(=O)[C@H](CCC(N)=O)NC(=O)[C@H](Cc1c[nH]cn1)NC(=O)[C@H](C)NC(=O)[C@H](CC(C)C)NC(=O)[C@H](CCCNC(=N)N)NC(=O)[C@H](CCC(N)=O)NC(=O)[C@@H](NC(=O)[C@@H](NC(=O)[C@@H]1CSSC[C@H](NC(=O)CN)C(=O)N[C@@H](CCCNC(=N)N)C(=O)N[C@@H]([C@@H](C)O)C(=O)NCC(=O)N[C@@H]([C@@H](C)O)C(=O)N1)[C@@H](C)O)C(C)C)C(=O)N[C@@H](Cc1ccc(O)cc1)C(=O)N[C@@H](CCC(N)=O)C(=O)N[C@@H](Cc1ccccc1)C(=O)N[C@H](C(=O)N[C@@H](CC(N)=O)C(=O)N[C@@H](CCCCN)C(=O)N[C@@H](CC(=O)O)C(=O)N[C@@H](CCCCN)C(=O)N[C@@H](CC(=O)O)C(=O)N[C@@H](CC(N)=O)C(=O)N[C@H](C(=O)N[C@@H](C)C(=O)N1CCC[C@H]1C(=O)N[C@@H](CCCNC(=N)N)C(=O)N[C@@H](CO)C(=O)N[C@@H](CCCCN)C(=O)N[C@H](C(=O)N[C@@H](CO)C(=O)N1CCC[C@H]1C(=O)N[C@@H](CCC(N)=O)C(=O)N[C@@H](CCC(N)=O)C(=O)N1C[C@H](O)C[C@H]1C(N)=O)[C@@H](C)CC)C(C)C)[C@@H](C)O` [compound 232] (H-GCRTGTCTVQRLAHQIYQFTNKDKDNVAPRSKISPQQ[Hyp]-NH2; disulfide 2-7; N-terminus assumed), the EC50 (hAM1 receptor) is reported as greater than 5 µM and the “Max ThT signal (%)” value [1] is reported as 1.200%.
In the case of `CC[C@H](C)[C@H](NC(=O)[C@H](CCC(N)=O)NC(=O)[C@H](Cc1c[nH]cn1)NC(=O)[C@H](C)NC(=O)[C@H](CC(C)C)NC(=O)[C@H](CCCNC(=N)N)NC(=O)[C@H](CCC(N)=O)NC(=O)[C@@H](NC(=O)[C@@H](NC(=O)[C@@H]1CSSC[C@H](NC(=O)CN)C(=O)N[C@@H](CCCNC(=N)N)C(=O)N[C@@H](Cc2ccccc2)C(=O)NCC(=O)N[C@@H]([C@@H](C)O)C(=O)N1)[C@@H](C)O)C(C)C)C(=O)N[C@@H](Cc1ccc(O)cc1)C(=O)N[C@@H](CCC(N)=O)C(=O)N[C@@H](Cc1ccccc1)C(=O)N[C@H](C(=O)N[C@@H](CC(=O)O)C(=O)N[C@@H](CCCCN)C(=O)N[C@@H](CC(=O)O)C(=O)N[C@@H](CCCCN)C(=O)N[C@@H](CC(=O)O)C(=O)N[C@@H](CC(N)=O)C(=O)N[C@H](C(=O)N[C@@H](C)C(=O)N1CCC[C@H]1C(=O)N[C@@H](CO)C(=O)N[C@@H](CO)C(=O)N[C@@H](CCCCN)C(=O)N[C@H](C(=O)N[C@@H](CO)C(=O)N1CCC[C@H]1C(=O)N[C@@H](CCC(N)=O)C(=O)N[C@H](C(=O)N1C[C@H](O)C[C@H]1C(N)=O)[C@@H](C)O)[C@@H](C)CC)C(C)C)[C@@H](C)O` [compound 240] (H-GCRFGTCTVQRLAHQIYQFTDKDKDNVAPSSKISPQT[Hyp]-NH2; disulfide 2-7; N-terminus assumed), the EC50 (hAM1 receptor) is reported as greater than 5 µM and the “Max ThT signal (%)” value [1] is reported as 3.700%.
In the case of `CC[C@H](C)[C@H](NC(=O)[C@H](CCC(N)=O)NC(=O)[C@H](Cc1c[nH]cn1)NC(=O)[C@H](C)NC(=O)[C@H](CC(C)C)NC(=O)[C@H](CCCNC(=N)N)NC(=O)[C@H](CCC(N)=O)NC(=O)[C@@H](NC(=O)[C@@H](NC(=O)[C@@H]1CSSC[C@H](NC(=O)CN)C(=O)N[C@@H](CCCNC(=N)N)C(=O)N[C@@H]([C@@H](C)O)C(=O)NCC(=O)N[C@@H]([C@@H](C)O)C(=O)N1)[C@@H](C)O)C(C)C)C(=O)N[C@@H](Cc1ccc(O)cc1)C(=O)N[C@@H](CCC(N)=O)C(=O)N[C@@H](Cc1ccccc1)C(=O)N[C@H](C(=O)N[C@@H](CC(N)=O)C(=O)N[C@@H](CCCCN)C(=O)N[C@@H](CC(=O)O)C(=O)N[C@@H](CCCCN)C(=O)N[C@@H](CC(=O)O)C(=O)N[C@@H](CC(N)=O)C(=O)N[C@H](C(=O)N[C@@H](C)C(=O)N1CCC[C@H]1C(=O)N[C@@H](CCCNC(=N)N)C(=O)N[C@@H](CO)C(=O)N[C@@H](CCCCN)C(=O)N[C@H](C(=O)N[C@@H](CO)C(=O)N1CCC[C@H]1C(=O)N[C@@H](CCC(N)=O)C(=O)N[C@H](C(=O)N[C@@H](CCCNC(=N)N)C(N)=O)[C@@H](C)O)[C@@H](C)CC)C(C)C)[C@@H](C)O` [compound 242] (H-GCRTGTCTVQRLAHQIYQFTNKDKDNVAPRSKISPQTR-NH2; disulfide 2-7; N-terminus assumed), the EC50 (hAM1 receptor) is reported as greater than 5 µM and the “Max ThT signal (%)” value [1] is reported as 0.800%.
For `CC[C@H](C)[C@H](NC(=O)[C@H](CCCCN)NC(=O)[C@@H](NC(=O)[C@H](CCCNC(=N)N)NC(=O)[C@@H]1CCCN1C(=O)[C@H](C)NC(=O)[C@@H](NC(=O)[C@H](CC(N)=O)NC(=O)[C@H](CC(=O)O)NC(=O)[C@H](CCCCN)NC(=O)[C@H](CC(=O)O)NC(=O)[C@H](CCCCN)NC(=O)[C@H](CC(=O)O)NC(=O)[C@@H](NC(=O)[C@H](Cc1ccccc1)NC(=O)[C@H](CCC(N)=O)NC(=O)[C@H](Cc1ccc(O)cc1)NC(=O)[C@@H](NC(=O)[C@H](CCC(N)=O)NC(=O)[C@H](Cc1c[nH]cn1)NC(=O)[C@H](C)NC(=O)[C@H](CC(C)C)NC(=O)[C@H](CCCNC(N)=O)NC(=O)[C@H](CCC(N)=O)NC(=O)[C@@H](NC(=O)[C@@H](NC(=O)[C@@H]1CSSC[C@H](NC(=O)CN)C(=O)N[C@@H](CCCNC(=N)N)C(=O)N[C@@H]([C@@H](C)O)C(=O)NCC(=O)N[C@@H]([C@@H](C)O)C(=O)N1)[C@@H](C)O)C(C)C)[C@@H](C)CC)[C@@H](C)O)C(C)C)[C@@H](C)O)C(=O)NCC(=O)N1CCC[C@H]1C(=O)N[C@@H](CC(N)=O)C(=O)NCC(=O)N1C[C@H](O)C[C@H]1C(N)=O` [compound 277] (H-GCRTGTCTVQ[Cit]LAHQIYQFTDKDKDNVAPRTKIGPNG[Hyp]-NH2; disulfide 2-7; N-terminus assumed), the EC50 (hAM1 receptor) was greater than 5 µM and the “Max ThT signal (%)” value [1] was 21.600%.
